Experimental data from patent US20240025904A1, “PDE9 INHIBITORS FOR TREATING CARDIAC FAILURE” (Cardurion Pharmaceuticals, Inc., priority 2020, published 2024).
Several values for one entry are separate records, joined by “and”; a condition that tells them apart may be missing. Identical values can stand only once.

Key:
[1] = tested on: angiotensin II-infused mouse (Ang-II model of HFpEF); assay: Angiotensin II infusion mouse model of HFpEF; format: in vivo
Text: C57BL/6J mice develop compensatory concentric hypertrophy and fibrosis in response to angiotensin II. Pulmonary congestion, as well as exercise intolerance, are evident and seem to be related to angiotensin II-induced skeletal muscle abnormalities, including impaired mitochondrial function and skeletal muscle atrophy. In summary, if strain and dosage are optimized to mirror the human HFpEF phenotype, angiotensin II infusion appears to be a relevant HFpEF model.
Model 2: eight-week-old C57BL/6J male mice were anesthetized with isoflurane and subcutaneously implanted with an osmotic minipump to continuously infuse angiotensin II in 10 mM acetic acid at a dose of 1.5 mg/kg per day over a period of 4 to 6 weeks. Experimental animal groups were randomly assigned to receive either vehicle or Compound 1 at 60 mg/kg/day or 100 mg/kg/day by oral gavage for 4 or 6 weeks (36 mice, N=6/group) over the same time period. The mice were housed in a standard-temperature, 12 h/12 h light/dark controlled room, with water and standard rodent diet available ad libitum. Mice were euthanized 4 or 6 weeks after angiotensin-II infusion. It has been shown that administering of 60 mg/kg of Compound 1 in mice is equivalent to administering about 4.8 mg/kg of Compound 1 in adult human subjects. Similarly, it has been shown that administering 100 mg/kg of Compound 1 in mice is equivalent to administering about 8.1 mg/kg of Compound 1 in human subjects.
(§1) Methods: Cardiac and renal responses to Compound 1 (60 mg/kg, 100 mg/kg) compared with vehicle were examined over 6-8 weeks in 3 adult male mouse models of HFpEF (1.5 mg/kg/d angiotensin-II infusion [ang-II]; uninephrectomy+0.30 μg/h d-aldosterone infusion+1% NaCl drinking water [neph-aldo]; and db/db [db]). Phenotyping included wheat germ agglutinin staining for cardiomyocyte cross-sectional area (CSA); RT-PCR for myocardial PDE9, natriuretic peptide, inflammatory and fibrosis marker transcript abundances; ELISA for plasma natriuretic peptides; and urinary albumin to creatinine ratio (UACR).
(§2) P-value from Wilcoxon rank-sum test. Ang-II model (8-week old C57BL/6 mice were infused with ang-II at […] for 6 weeks with concomitant Compound 1 or vehicle). Neph+d-aldo+1% NaCl model (8-week old C57BL/6 mice underwent uninephrectomy then were infused with d-aldosterone for 6 weeks with ad-libitum 1% NaCl drinking water while receiving concomitant Compound 1 or vehicle). db model (20-week old BKS.Cg-Dock7m+/+Leprdb/J received vehicle or Compound 1 for 8 weeks). mRNA expression levels were normalized to GAPDH, Rpl4 and Eef1e1.

[2] = tested on: aldosterone-infused and unilateral nephrectomized mouse (neph-aldo model of HFpEF); assay: Uninephrectomy + d-aldosterone infusion + 1% NaCl mouse model of HFpEF; format: in vivo
Text: Mice subjected to uninephrectomy and aldosterone infusion for 4 to 6 weeks, accompanied by 1% NaCl intake, develop HFpEF with moderate hypertension, concentric left ventricle hypertrophy, pulmonary congestion, and echocardiographic evidence of diastolic dysfunction while maintaining a normal/preserved LVEF. These mice also show exercise impairment. At the molecular level, left ventricle tissue from these mice show an increase in natriuretic peptides, cardiac size and fibrosis, as well as an increase in the oxidative stress.
Model 1: eight-week-old C57BL/6J male mice were anesthetized with 100 mg/kg ketamine and 10 mg/kg xylazine intraperitoneally. All mice underwent unilateral nephrectomy and then will receive a continuous infusion of d-aldosterone (0.30 μg/h) via osmotic minipumps. All mice were maintained on 1.0% sodium chloride drinking water. Mice were randomized to receive either vehicle or Compound 1 at 60 mg/kg/day or 100 mg/kg/day by oral gavage for 4 or 6 weeks (36 mice, N=6/group). The mice were housed in a standard-temperature, 12 h/12 h light/dark controlled room, with water and standard rodent diet available ad libitum. Mice were euthanized 4 or 6 weeks after the beginning of the treatment. It has been shown that administering of 60 mg/kg of Compound 1 in mice is equivalent to administering about 4.8 mg/kg of Compound 1 in adult human subjects. Similarly, it has been shown that administering 100 mg/kg of Compound 1 in mice is equivalent to administering about 8.1 mg/kg of Compound 1 in human subjects.
as §1, §2

db/db mouse = db/db mouse model of HFpEF; format: in vivo
Text: The db/db leptin receptor-deficient mouse has a point mutation in the diabetes (db) gene encoding the leptin receptor, which spontaneously causes morbid obesity accompanied by severe hyperglycemia secondary to type 2 diabetes. […] At the histological level, these mice hearts have enlarged cardiomyocytes, evidence of fibrosis, and capillary rarefaction. The db/db mice appear to represent the obese/metabolic HFpEF phenotype, with evidence of HF, whereas LVEF is preserved.
Model 3: twenty-week old male diabetic-prone, obese db/db mice of the BKS.Cg-Dock7m+/+Leprdb/J strain will be randomly assigned (30 mice, n=10/group) to receive vehicle or chronic Compound 1 treatment at 60 mg/kg/day or 100 mg/kg/day. Treatment will be carried for 8 weeks using subcutaneous osmotic pumps. The mice will be housed in a standard-temperature, 12 h/12 h light/dark controlled room, with water and standard rodent diet available ad libitum.
as §1, §2

patient = assay: Administration with food, adverse event profile; format: in vivo; details: once a day with food
[3] = tested on: adult patients with sickle cell disease; assay: IMR-SCD-102 Phase 2a trial, plasma NT-proBNP; format: in vivo, human
Procedure: IMR-SCD-102 is an ongoing Phase 2a randomized double-blind placebo-controlled trial testing Compound 1 (IMR-687) at 50 mg-200 mg daily as monotherapy or 50-100 mg in combination with background hydroxyurea therapy (Compound 1+HU). A protocol amendment later in the study allowed for sample collection and characterization of NT-proBNP levels in the combination cohort (Compound 1+HU versus HU alone). Plasma NT-proBNP was measured in 15 subjects (100% HbSS genotype) at randomization and again at 4 months. A 2:1 randomization schema favoring combination treatment translated to 10 subjects on Compound 1+HU and 5 on HU alone. Baseline, 4-month follow-up, and change in NT-proBNP levels were quantified. Further, whether the change in NT-proBNP level varied according to treatment and baseline NT-proBNP level was tested.

[4] = median, Ang-II model, 6 weeks, normalized to GAPDH, Rpl4 and Eef1e1
[5] = median, Neph + Aldo model, 6 weeks
[6] = median, Neph + Aldo model, 6 weeks, normalized to GAPDH, Rpl4 and Eef1e1
[7] = median, db/db model, 8 weeks, normalized to GAPDH, Rpl4 and Eef1e1

`C[C@@H]1CN(Cc2ncccn2)C[C@H]1c1cn2c(C3CCOCC3)ncc2c(=O)[nH]1` (single isomer, unassigned) [Compound 1] was tested, and the “heart size and cardiomyocyte hypertrophy” value ([1]; 6 weeks of dosing at 60 and 100 mg/kg, FIGS. 1A, 1B) was “decreases”, the “Heart rate and blood pressure, Compound 1 vs vehicle treated mice” value ([1]; ang-II model) was “did not differ” and the “reduction of median cardiomyocyte size (CSA) compared with vehicle” value (“reduction of median cardiomyocyte size” below) ([1]; ang-II model, Compound 1 60 mg/kg, 100 mg/kg, p<0.003) was 54%. The “ANP and BNP markers of cardiac dysfunction” value ([1]; dosing with 60 and 100 mg/kg, FIGS. 3A, 3B left side) was “decreases”, the “PDE5 and PDE9 expression” value ([1]; in combination with Angiotensin II, FIG. 4A) was “increased” and the “markers of myocardial inflammation” value ([1]; in combination with Angiotensin II, FIG. 8A) was “decreases”. For the same compound, the “heart fibrosis (TGF-ß1 and downstream targets Fibronectin and Collagen type I and III)” value ([1]; in combination with Angiotensin II, FIGS. 6A, 6B) was “decreases”, the “Plasma ANP” value ([1]; median, Ang-II model, 6 weeks) was 968 pg/mL and the “Plasma BNP” value ([1]; median, Ang-II model, 6 weeks) was 2376 pg/mL. For the same compound, the “Urine UACR (urinary albumin to creatinine ratio)” value ([1]; median, Ang-II model, 6 weeks) was 95.5 µg/mg, the “Myocardial mRNA PDE9” value ([1]; median, Ang-II model, 6 weeks, Compound 1 60 mg/kg, 100 mg/kg, normalized to GAPDH, Rpl4 and Eef1e1) was 1.7 and the “Myocardial mRNA COL3A1” value [1, 4] was 1.5. The “Myocardial mRNA IL-1b” value [1, 4] was 1.9, the “Myocardial mRNA NPPA” value [1, 4] was 1.4 and the “Myocardial mRNA NPPB” value [1, 4] was 2.0. For the same compound, the “heart size and cardiomyocyte hypertrophy” value ([2]; after 4 weeks of dosing at 60 and 100 mg/kg, FIGS. 2A, 2B) was “decreases”, the “ANP and BNP markers of cardiac dysfunction” value ([2]; dosing with 60 and 100 mg/kg, FIGS. 3A, 3B right side) was “decreases” and the “PDE5 and PDE9 expression” value ([2]; in combination with nephrectomy-aldosterone, FIG. 4B) was “increased”. For the same compound, the “heart fibrosis (TGF-ß1 and downstream targets Fibronectin and Collagen type I and III)” value ([2]; in combination with nephrectomy-aldosterone, FIG. 7) was “decreases”, the “markers of myocardial inflammation” value ([2]; in combination with nephrectomy-aldosterone, FIG. 8B) was “decreases” and the “Plasma ANP” value [2, 5] was 740 pg/mL. For the same compound, the “Plasma BNP” value [2, 5] was 1216 pg/mL, the “Urine UACR (urinary albumin to creatinine ratio)” value [2, 5] was 48.4 µg/mg and the “Myocardial mRNA PDE9” value ([2]; median, Neph + Aldo model, 6 weeks, Compound 1 60 mg/kg, 100 mg/kg, normalized to GAPDH, Rpl4 and Eef1e1) was 3.7. The “Myocardial mRNA COL3A1” value [2, 6] was 2.6, the “Myocardial mRNA IL-1b” value [2, 6] was 2.5 and the “Myocardial mRNA NPPA” value [2, 6] was 4.9. For the same compound, the “Myocardial mRNA NPPB” value [2, 6] was 4.2, the “Heart rate and blood pressure, Compound 1 vs vehicle treated mice” value ([2]; neph-aldo model) was “did not differ” and the “reduction of median cardiomyocyte size” value ([2]; neph-aldo model, Compound 1 60 mg/kg, 100 mg/kg, p<0.003) was 58%. The “Heart rate and blood pressure, Compound 1 vs vehicle treated mice” value (db/db mouse; db model) was “did not differ”, the “reduction of median cardiomyocyte size” value (db/db mouse; db model, Compound 1 60 mg/kg, 100 mg/kg, p<0.003) was 35% and the “Plasma ANP” value (db/db mouse; median, db/db model, 8 weeks) was 714 pg/mL. For the same compound, the “Plasma BNP” value (db/db mouse; median, db/db model, 8 weeks) was 830 pg/mL, the “Urine UACR (urinary albumin to creatinine ratio)” value (db/db mouse; median, db/db model, 8 weeks) was 132.5 µg/mg and the “Myocardial mRNA PDE9” value (db/db mouse; median, db/db model, 8 weeks, Compound 1 60 mg/kg, 100 mg/kg, normalized to GAPDH, Rpl4 and Eef1e1) was 1.5. The “Myocardial mRNA COL3A1” value (db/db mouse; [7]) was 1.1, the “Myocardial mRNA IL-1b” value (db/db mouse; [7]) was 3.6 and the “Myocardial mRNA NPPA” value (db/db mouse; [7]) was 1.7. For the same compound, the “Myocardial mRNA NPPB” value (db/db mouse; [7]) was 2.2 and the “effect of food on adverse event profile (nausea, emesis, headache)” value (patient) was “reduce the adverse event profile dramatically”.
With `NC(=O)NO` [HU, hydroxyurea] the “treated subjects with greater than 50% reduction in NT-proBNP levels” value ([3]; at 4 months) was “none”, the “mean 4-month follow-up NT-proBNP level” value ([3]; plasma, 4 months) was 436 pg/mL and the “mean NT-proBNP higher at 4 months than baseline” value ([3]; plasma, 4 months) was 27.0% and 27. %. The “mean increase of NT-proBNP, baseline to 4 months” value ([3]; plasma, 4 months) was 93 pg/mL, the “mean baseline NT-proBNP level” value ([3]; plasma, at randomization) was 343 pg/mL and the “average increase in NT-proBNP between baseline and 4 months” value ([3]; subjects with baseline NT-proBNP ≥400 pg/ml) was 28%.
